# System: glucocorticoid receptor function
# Experiment: one or more of the above assays (GR binding and glucocorticoid receptor cell assays: aromatase, IL-6, TAT, MMTV-Luc, IL-8, ICAM-Luc)
# Assay type: cell-based
# Details: assay not specified per compound
# Experimental: B. Glucocorticoid Receptor Cell Assays
# 1. Induction of Aromatase in Fibroblasts (Cell Assay for Transactivation)
# Dexamethasone, a synthetic ligand to the glucocorticoid receptor (GR), induces expression of aromatase in human foreskin fibroblast cells. The activity of aromatase is measured by the conversion of testosterone to estradiol in culture media.
# On the day of the experiment, the media in the wells is replaced with fresh media. Cells are treated with test compounds to final concentrations of 10^−5 M to 10^−8 M, and testosterone to a final concentration of 300 ng/mL. Each well has a total volume of 100 μL. Samples are made in duplicates. Control wells include: (a) wells that receive testosterone only, and (b) wells that receive testosterone plus 2 μM of dexamethasone to provide maximum induction of aromatase. Plates are incubated at 37° C. overnight (15 to 18 hours), and supernatants are harvested at the end of incubation. […] The amount of estradiol is inversely proportional to the ELISA signals in each well. The extent of aromatase induction by test compounds is expressed as a relative percentage to dexamethasone. EC50 values of test compounds are derived by non-linear curve fitting.
# 2. Inhibition of IL-6 Production in Fibroblasts (Cell Assay for Transrepression)
# Human foreskin fibroblast cells produce IL-6 in response to stimulation by proinflammatory cytokine IL-1.
# On the next day, media in the wells is replaced with fresh media. Cells are treated with IL-1 (rhIL-1α, R&D Systems Cat. No. 200-LA) to a final concentration of 1 ng/mL, and with test compounds to final concentrations of 10^−5 M to 10^−8 M, in a total volume of 200 μL per well. Samples are done in duplicates. […] Positive control wells receive IL-1 only and represent maximum (or 100%) amount of IL-6 production. Plates are incubated at 37° C. overnight (15 to 18 hours), and supernatants are harvested at the end of incubation. IL-6 levels in the supernatants are determined by the ELISA kits for IL-6 (MedSystems Diagnostics GmbH, Vienna, Austria, Cat. No. BMS213TEN) according to manufacture's instructions. The extent of inhibition of IL-6 by test compounds is expressed in percentage relative to positive controls. IC50 values of test compounds are derived by non-linear curve fitting.
# Evaluation of agonist or antagonist activity of compounds binding to the glucocorticoid receptor may be determined by any of the assays.
# 3. Modulation of Tyrosine Aminotransferase (TAT) Induction in Rat Hepatoma Cells
# Testing of compounds for agonist or antagonist activity in induction of tyrosine aminotransferase (TAT) in rat hepatoma cells.
# H4-II-E-C3 cells were incubated overnight in 96 well plates (20,000 cells/100 μL/well) in MEM medium containing 10% heat inactivated FBS and 1% nonessential amino acids. On the next day, cells were stimulated with the indicated concentrations of dexamethasone or test compound (dissolved in DMSO, final DMSO concentration 0.2%) for 18 hours. Control cells were treated with 0.2% DMSO. After 18 hours, the cells were lysed in a buffer containing 0.1% Triton X-100 and the TAT activity was measured in a photometric assay using tyrosine and alpha-ketoglutarate as substrates.
# For measuring antagonist activity, the hepatoma cells were pre-stimulated by addition of dexamethasone (concentration ranges from 3×10^−9 M to 3×10^−8 M) shortly before the test compound was applied to the cells.
# 4. Modulation of MMTV-Luc Induction in HeLa Cells
# Testing of compounds for agonist or antagonist activity in stimulation of MMTV-(mouse mammary tumor virus) promoter in HeLa cells.
# Cells were cultured overnight in DMEM medium without phenol red, supplemented with 3% CCS (charcoal treated calf serum) and then transferred to 96 well plates (15,000 cells/100 μL/well).
row,Compound,activity as agonists of the glucocorticoid receptor function in one or more of the above assays
1,"C[S+]([O-])c1ccc2[nH]c(CC(O)(CC(C)(C)c3cc(F)cc4c3OCC4)C(F)(F)F)cc2c1 (stereo not drawn) [1,1,1-Trifluoro-4-(5-fluoro-2,3-dihydrobenzofuran-7-yl)-2-(5-methanesulfinyl-1H-indol-2-ylmethyl)-4-methylpentan-2-ol]",potent agonists
2,"CC(C)(CC(O)(Cc1cc2cc(C#N)ccc2[nH]1)C(F)(F)F)c1cc(S(C)(=O)=O)cc2c1OCC2 (stereo not drawn) [2-[2-Hydroxy-4-(5-methanesulfonyl-2,3-dihydrobenzofuran-7-yl)-4-methyl-2-trifluoromethylpentyl]-1H-indole-5-carbonitrile]",potent agonists
3,"CC(C)C(O)(Cc1cc2ccncc2[nH]1)CC(C)(C)c1cc(Cl)cc2c1OCC2 (stereo not drawn) [5-(5-Chloro-2,3-dihydrobenzofuran-7-yl)-2,5-dimethyl-3-(1H-pyrrolo[2,3-c]pyridin-2-ylmethyl)hexan-3-ol]",agonists
4,"COc1ccc(-c2cccc(C#N)c2)cc1C(C)(C)CC(O)(Cc1cc2ccncc2[nH]1)C(F)(F)F (stereo not drawn) [4′-Methoxy-3′-[4,4,4-trifluoro-3-hydroxy-1,1-dimethyl-3-(1H-pyrrolo[2,3-c]pyridin-2-ylmethyl)butyl]biphenyl-3-carbonitrile]",potent agonists
5,"COc1ccc(-c2cccnc2)cc1C(C)(C)CC(O)(Cc1cc2cc(Oc3ccccc3)ncc2[nH]1)C(F)(F)F (stereo not drawn) [1,1,1-Trifluoro-4-(2-methoxy-5-pyridin-3-ylphenyl)-4-methyl-2-(5-phenoxy-1H-pyrrolo[2,3-c]pyridin-2-ylmethyl)pentan-2-ol]",potent agonists
6,"CC(C)(CC(O)(Cc1cc2ncncc2[nH]1)C(F)(F)F)c1cc(F)cc2c1OCC2 (stereo not drawn) [1,1,1-Trifluoro-4-(5-fluoro-2,3-dihydrobenzofuran-7-yl)-4-methyl-2-(5H-pyrrolo[3,2-d]pyrimidin-6-ylmethyl)pentan-2-ol]",potent agonists
7,"COc1ccc(F)cc1C(C)(C)CC(O)(Cc1cc2ccncc2[nH]1)C1(F)CC1 (stereo not drawn) [2-(1-Fluorocyclopropyl)-4-(5-fluoro-2-methoxyphenyl)-4-methyl-1-(1H-pyrrolo[2,3-c]pyridin-2-yl)pentan-2-ol]",agonists
8,"CC(C)Oc1cc2cc(CC(O)(CC(C)(C)c3cc(F)ccc3C(F)(F)F)C(F)(F)F)[nH]c2cn1 (stereo not drawn) [1,1,1-Trifluoro-4-(5-fluoro-2-trifluoromethylphenyl)-2-(5-isopropoxy-1H-pyrrolo[2,3-c]pyridin-2-ylmethyl)-4-methylpentan-2-ol]",potent agonists
9,"CCc1cccc2[nH]c(CC(O)(CC(C)(C)c3cc(F)ccc3OC)C(F)(F)F)cc12 (stereo not drawn) [2-(4-Ethyl-1H-indol-2-ylmethyl)-1,1,1-trifluoro-4-(5-fluoro-2-methoxyphenyl)-4-methylpentan-2-ol]",potent agonists
10,"COc1ccc(-c2ccsc2)cc1C(C)(C)CC(O)(Cc1cc2ccncc2[nH]1)C(F)(F)F (stereo not drawn) [1,1,1-Trifluoro-4-(2-methoxy-5-thiophen-3-ylphenyl)-4-methyl-2-(1H-pyrrolo[2,3-c]pyridin-2-ylmethyl)pentan-2-ol]",potent agonists
11,"CC(C)(CC(O)(Cc1cc2cc(Oc3ccccc3)ncc2[nH]1)C(F)(F)F)c1cc(-c2cccnc2)ccc1O (stereo not drawn) [4-Pyridin-3-yl-2-[4,4,4-trifluoro-3-hydroxy-1,1-dimethyl-3-(5-phenoxy-1H-pyrrolo[2,3-c]pyridin-2-ylmethyl)butyl]phenol]",potent agonists
12,"Cc1cc2[nH]c(CC(O)(CC(C)(C)c3cc(Cl)cc4c3OCC4)C(F)F)cc2cn1 (stereo not drawn) [4-(5-Chloro-2,3-dihydrobenzofuran-7-yl)-1,1-difluoro-4-methyl-2-(6-methyl-1H-pyrrolo[3,2-c]pyridin-2-ylmethyl)pentan-2-ol]",agonists
13,"COc1ccc(-c2cncnc2)cc1C(C)(C)CC(O)(Cc1cc2cnccc2[nH]1)C(F)(F)F (stereo not drawn) [1,1,1-Trifluoro-4-(2-methoxy-5-pyrimidin-5-ylphenyl)-4-methyl-2-(1H-pyrrolo[3,2-c]pyridin-2-ylmethyl)pentan-2-ol]",potent agonists
14,"CC(CO)(CC(O)(Cc1ccnc2ccccc12)C(F)(F)F)c1ccccc1 (stereo not drawn) [5,5,5-Trifluoro-2-methyl-2-phenyl-4-quinolin-4-ylmethylpentane-1,4-diol]",agonists
15,"COc1ccc(-c2ccccc2)cc1C(C)(C)CC(O)(Cc1cc2c(C)nccc2[nH]1)C(F)(F)F (stereo not drawn) [1,1,1-Trifluoro-4-(4-methoxybiphenyl-3-yl)-4-methyl-2-(4-methyl-1H-pyrrolo[3,2-c]pyridin-2-ylmethyl)pentan-2-ol]",potent agonists
16,"COc1ccc(F)cc1C(C)(C)CC(O)(Cc1cc2ccncc2[nH]1)C(C)(C)C (stereo not drawn) [5-(5-Fluoro-2-methoxyphenyl)-2,2,5-trimethyl-3-(1H-pyrrolo[2,3-c]pyridin-2-ylmethyl)hexan-3-ol]",agonists
17,"CC(C)(CC(O)(Cc1cc2cnccc2[nH]1)C(F)(F)F)c1cccc(-c2cncnc2)c1 (stereo not drawn) [1,1,1-Trifluoro-4-methyl-4-(3-pyrimidin-5-ylphenyl)-2-(1H-pyrrolo[3,2-c]pyridin-2-ylmethyl)pentan-2-ol]",potent agonists
18,"Cc1ccc(F)cc1C(C)(C)CC(O)(Cc1[nH]c2cnccc2c1C)C(C)(C)C (stereo not drawn) [5-(5-Fluoro-2-methylphenyl)-2,2,5-trimethyl-3-(3-methyl-1H-pyrrolo[2,3-c]pyridin-2-ylmethyl)hexan-3-ol]",agonists
19,"COc1ccc(C)cc1C(C)(C)CC(O)(Cc1cc2nc(N3CCCC3)ncc2[nH]1)C(F)(F)F (stereo not drawn) [1,1,1-Trifluoro-4-(2-methoxy-5-methylphenyl)-4-methyl-2-(2-pyrrolidin-1-yl-5H-pyrrolo[3,2-d]pyrimidin-6-ylmethyl)pentan-2-ol]",potent agonists
20,"COc1cc(F)ccc1C(C)(C)CC(O)(Cc1cc2c(C)cncc2[nH]1)C(F)(F)F (stereo not drawn) [1,1,1-Trifluoro-4-(4-fluoro-2-methoxyphenyl)-4-methyl-2-(4-methyl-1H-pyrrolo[2,3-c]pyridin-2-ylmethyl)pentan-2-ol]",potent agonists
21,"CC(C)(CC(O)(Cc1cc2nc(CN3CCOCC3)ccc2[nH]1)C(F)(F)F)c1cc(Cl)ccc1O (stereo not drawn) [4-Chloro-2-[4,4,4-trifluoro-3-hydroxy-1,1-dimethyl-3-(5-morpholin-4-ylmethyl-1H-pyrrolo[3,2-b]pyridin-2-ylmethyl)butyl]phenol]",potent agonists
